Source: US20100152140A1, “Method of Cancer Treatment with Naphthol Analogs” (priority 2007, published 2010)

Assays:
[1] = system: interleukin-6; conditions: human cord blood-derived mast cells, mouse bone marrow-derived mast cells; cited from earlier work
[2] = system: NHTBE cells; experiment: MTT assay, NHTBE cells; assay type: cell-based, human; conditions: NHTBE cells compared with NSCLC cells
Procedure: (§1) The cytotoxic activity of Ro-31-8220 was also determined against the all four NSCLC cells and NHTBE cells. Briefly, the cells (2,000/well) were incubated in triplicate in 96-well plates in the presence or absence of indicated test samples in a final volume of 0.2 ml for different days at 37° C. Afterwards, we performed the MTT assay.

[3] = system: nuclear transcription factor kappa B-dependent transcription; conditions: pulmonary A549 cells; cited from earlier work
[4] = system: CREB; experiment: Western blot of p-CREB (CREB activation) in H1734 cells; assay type: cell-based, human; conditions: serum free media, time course and various concentrations for 4 h
Procedure: (§2) Western Blot Analysis. Protein extracts from each of NSCLC cells and the NHTBE cells, were prepared by lysing the cells in SDS lysis buffer (250 mM Tris-Cl, pH 6.5, 2% SDS, 4% β-mercaptoethanol, 0.02% bromophenol blue, 10% glycerol) containing protease and phosphatase inhibitors. Standard SDS-PAGE and Western blotting procedures were used to analyze the cell extracts. Nitrocellulose blots were probed with anti-CREB and anti-phospho-specific pSer-133 CREB (Upstate Biotechnology, Waltham, Mass.); anti-Bcl-2, anti-Bcl-XL, anti-phospho-Erk1/2, and anti-Erk1/2 (Santa Cruz Biotechnology, Santa Cruz, Calif.); and anti-phospho-Rsk and anti-Rsk (Cell Signaling Technology, Cambridge, Mass.). To detect the cleavage products of apoptosis, nitrocellulose blots were probed with anti-poly (ADP-ribose) polymerase (PARP), anti-caspase-9, and anti-caspase-3 antibodies (New England Biolabs, Beverly, Mass.). Anti-actin antibodies were purchased from Sigma-Aldrich (St. Louis, Mo.) and the caspase-3 inhibitor Ac-DEVD-CHO was obtained from Promega (Madison, Wis.).

[5] = system: NSCLC cells (H1734, H226, A549, H292); experiment: MTT assay, NSCLC cell lines; assay type: cell-based, human
Procedure: as §1

[6] = system: H226 cells; experiment: Soft agar colony assay, H226; assay type: cell-based, human; conditions: H226, 2 μM, 28 days
Procedure: (§3) Soft Agar Colony Assay. Single-cell suspensions of the H1734 and H226 cells were treated with or without different concentrations of Ro-31-8220 and then mixed with agarose to a final concentration of 0.35%. Aliquots of 1.5 ml containing 10^4 cells and 10% fetal calf serum were plated in triplicate in six-well plates over a base layer of 0.7% agarose and allowed to gel. The number of colonies that were greater than 60 μm was counted after 28 days of incubation.

[7] = system: phospho-Rsk; experiment: Western blot of phospho-Rsk in H1734 cells; assay type: cell-based, human; conditions: serum free media
Procedure: as §2

[8] = system: phospho-Erk1/2; experiment: Western blot of phospho-Erk1/2 in H1734 cells; assay type: cell-based, human
Procedure: as §2

[9] = system: pCREB; experiment: Immunocytochemistry for pCREB localization in H1734 cells; assay type: cell-based, human; conditions: 20 μM, 4 h, serum free media
Procedure: Immunocytochemistry for CREB Localization. H1734 cells (1×10^5 cells/ml) were plated on a glass chamber slide (Falcon; BD Biosciences, San Jose, Calif.) for adherence and treated the next day for 4 h with Ro-31-8220. The chambers were removed, and cells were fixed with cold acetone. After a brief washing in PBS, the slides were blocked with 5% normal goat serum in PBS for 1 h and then incubated for 4 h with rabbit polyclonal anti-pCREB antibody (dilution, 1:100). The slides were washed, incubated with goat anti-rabbit IgG-Alexa 594 (Molecular Probes, Eugene, Oreg.) (dilution 1:100) for 1 h, and counter-stained for nuclei with 4′,6-diamidino-2-phenylindole, dihydrochloride (DAPI; 50 ng/ml) (Molecular Probes, Eugene, Oreg.) for 15 min. The slides were mounted with a mounting medium (Sigma-Aldrich), and confocal images were captured with an Olympus FV500 confocal microscope (NY) by using a Plan Apo 60× oil objective.

[10] = system: H1734 cells; experiment: Western blot of apoptosis cleavage products (PARP, caspase-9, caspase-3); assay type: cell-based, human
Procedure: as §2

[11] = system: H1734 cells; experiment: TUNEL apoptosis assay; assay type: cell-based, human; conditions: H1734, 5 μM, 48 h
Procedure: Apoptosis Assay. H1734 cells (200,000) were plated in chamber slides; the next day, transfected with CREBwt, KCREB, and CREB133 DNA (100 ng/chamber), and with 100 nM siCREB. The terminal transferase dUTP nick end labeling (TUNEL) assay was performed according to the manufacturer's instructions (Promega). Briefly, the cells were fixed after 48 h of transfection in 4% formaldehyde and permeabilized with 0.5% Triton-X-100. The cells were incubated on the slides with terminal deoxynucleotidyl transferase and fluorescein-dUTP. They were then co-stained with DAPI and visualized with an Axioskop 40 fluorescence microscope (Carl Zeiss, Thornwood, N.Y.). Three fields were randomly counted for each sample. The images were captured at a magnification of 400× and stored using Axiovision software (Carl Zeiss), as described in the instructions provided by the manufacturer.

[12] = system: H1734 cells; experiment: Flow cytometric cell cycle analysis; assay type: cell-based, human; conditions: H1734, 10 μM
Procedure: Flow Cytometric Analysis. H1734 cells were first synchronized by serum starvation overnight and then exposed to Ro-31-8220 for different lengths of time in the presence of 5% serum. The cells were washed, trypsinized, and fixed in 70% ethanol for 1 h at −20° C. Finally, cells were washed with PBS, resuspended, and stained in PBS containing 25 μg of propidium iodide and 1 μg/ml RNAase a for 30 min at room temperature. The distribution of cells during the cell cycle was then analyzed with a Facscalibur flow cytometer (Becton Dickinson, Bedford, Mass.).

[13] = system: U937 human leukemia cells; conditions: cited from earlier work
[14] = system: CRE consensus oligonucleotide binding; experiment: EMSA of CRE consensus oligonucleotide binding, H1734 nuclear extracts; assay type: cell-based, human; conditions: serum free media
Procedure: Electrophoretic Mobility Shift Assay. Isolation of nuclear extracts, sequences, preparation of oligonucleotide probes, electrophoretic mobility shift assay (EMSA) was conducted as previously described (19).

[15] = system: H1734 cells; experiment: Soft agar colony assay, H1734; assay type: cell-based, human; conditions: H1734, 2 μM, 28 days
Procedure: as §3

[16] = system: H1734 cells; experiment: MTT viability, protection from Ro-31-8220 induced cytotoxicity; assay type: cell-based, human; conditions: H1734, inhibitor 2 h then 20 μM Ro-31-8220, 24 h
Procedure: as §1

**Q.** For Cn1cc(C2=C(c3cn(CCCSC(=N)N)c4ccccc34)C(=O)NC2=O)c2ccccc21 [Ro-31-8220, 2-{1-[3-(Amidinothio)propyl]-1H-indol-3-yl}-3-(1-methylindol-3-yl)maleimide], which “autocrine growth factor interleukin-6” value [1] is on record?
**A.** The value was “suppress”.

**Q.** What about the “suppression of mitochondrial activity (MTT)” value [2] of the same molecule?
**A.** The value was “significantly less than that in the NSCLC cells”.

**Q.** What about the “NF-kappa B-dependent transcription” value [3] of the same molecule?
**A.** Its value is “suppress”.

**Q.** What about the “CREB activation (p-CREB)” value [4] of the same molecule?
**A.** Its value is “substantially suppressed”.

**Q.** What about the “mitochondrial activity (MTT), cell growth” value ([5]; all four NSCLC cell lines, dose-dependent) of the same molecule?
**A.** Its value is “suppressed mitochondrial activity”.

**Q.** And the “decrease in colony formation” value [6]?
**A.** Its value is 85%.

**Q.** And the “concentration at which decrease of phospho-Rsk began” value ([7]; 4 h)?
**A.** The value was 5 µM.

**Q.** What about the “time to suppression of phospho-Rsk” value [7] of the same molecule?
**A.** Its value is ≤ 2 h.

**Q.** What about the “time to start of decrease of phospho-Erk1/2 expression” value [8] of the same molecule?
**A.** The value was ≤ 30 min.

**Q.** What about the “concentration at which decrease of phospho-Erk1/2 began” value ([8]; 4 h) of the same molecule?
**A.** The value was 5 µM.

**Q.** What about the “nuclear pCREB localization” value [9] of the same molecule?
**A.** The value was “induced the nuclear disappearance of pCREB”.

**Q.** What about the PARP cleavage ([10]; H1734, 20 μM Ro-31-8220) of the same molecule?
**A.** Its PARP cleavage is “cleavage of a 118-kDa PARP protein into an 87-kDa fragment”.

**Q.** And the caspase-9 activation ([10]; H1734, 20 μM Ro-31-8220, 47-kDa to 37-kDa band)?
**A.** The caspase-9 activation was “time-dependent activation”.

**Q.** What about the caspase-3 activation ([10]; H1734, 20 μM Ro-31-8220, 24 h) of the same molecule?
**A.** Its caspase-3 activation is “activation of caspase-3”.

**Q.** What about the “cells in which apoptosis was induced (TUNEL)” value [11] of the same molecule?
**A.** The value was 52%.

**Q.** What about the “percentage of cells in the G2 phase” value ([12]; 6 h, controls 18%) of the same molecule?
**A.** The value was 24.5%.

**Q.** And the “percentage of cells in G2 phase” value ([12]; 24 h, controls 15%)?
**A.** The value was 53%.

**Q.** And the “apoptosis in U937 human leukemia cells” value [13]?
**A.** The value was “induces apoptosis”.

**Q.** What about the “proliferation of U937 human leukemia cells” value [13] of the same molecule?
**A.** Its value is “suppressed the proliferation”.

**Q.** And the “CRE consensus oligonucleotide binding” value [14]?
**A.** The value was “suppressed in a time dependent and dose dependent manner”.

**Q.** And the “decrease in colony formation” value [15]?
**A.** Its value is 85%.

**Q.** Which “cell growth of NSCLC cell lines” value ([5]; compared with Ro-31-8220) does the source give for O=S(=O)(NCCNC/C=C/c1ccc(Br)cc1)c1cccc2cnccc12 [H-89] here?
**A.** The value was “not significantly inhibiting the cell growth”.

**Q.** With CC(=O)N[C@@H](CC(=O)O)C(=O)N[C@@H](CCC(=O)O)C(=O)N[C@H](C(=O)N[C@H](C=O)CC(=O)O)C(C)C [Ac-DEVD-CHO] as the molecule, how does the “protection from Ro-31-8220 induced cytotoxicity” value [16] read?
**A.** The value was “protected the cells”.
